In patent US4859668A, “Method of inhibiting the growth of melanin-pigmented cells” (North Carolina State University, priority 1988, dated 1989):
Like-named read-outs stand apart in the source and are kept apart here.

Assays:
L929 fibroblast [1] = experiment: Effects of Various Cyclic Amines on Growth of Pigmented Melanoma Cells (Table III), L929; assay type: cell-based, mouse; settings: for inhibition at 13800 µM: Mus musculus, read-out: Percent Inhibition, L929 fibroblast
Procedure: (§1) Pigmented S91 melanoma and unpigmented L929 fibroblast cells were treated with various cyclic amines at a concentration of 13.8 mM as described in Example 1 above.

melanin-pigmented cells = experiment: In vitro selective inhibition of melanin-pigmented cells, effective dosage/time regimens; assay type: cell-based
S91 melanoma [2] = experiment: Effects of Various Cyclic Amines on Growth of Pigmented Melanoma Cells (Table III), S91; assay type: cell-based, mouse; settings: for inhibition at 13800 µM: Mus musculus, read-out: Percent Inhibition, S91 melanoma
Procedure: as §1

HFH-LP [3] = experiment: Effect of Cyclic Amines on Survival of Pigmented Melanoma (Table II), HFH-LP; settings: Mus musculus, 24 h, read-out: percentage dead, HFH-LP
Procedure: (§3) These cells were maintained as monolayers in Corning plastic flasks in Minimum Essential Medium (Eagle) with Earle's salts supplemented with 10% fetal bovine serum, 100 units of penicillin, 100 mg of streptomycin and 5 mg of amphotericin B per ml in 5% CO2 humidified air at 37° C.
(§4) Prior to dose-response studies, single cell suspensions were prepared in medium following trypsinization and inoculated into Falcon Multiwell plates (2 cm^2 wells) at 3.5×10^4 cells per 0.5 ml of medium. Cultures were maintained for 24 hours before exposure.
(§5) This stock solution was used to prepare test concentrations of the drug in culture medium. […] Cells were exposed to each of these concentrations by adding 0.5 ml of each of the solutions to triplicate test wells and incubating the cells under exposure at 37° C. for 1 hour. […] Cells were harvested after 48 hours and counted with a hemacytometer.

[4] = test system: S91 (Cloudman S91 mouse melanoma); experiment: Effect of Cyclic Amines on Survival of Pigmented Melanoma (Table II), S91; settings: 24 h, read-out: percentage dead, S91
Procedure: as §3, §4, §5

HFH-LP [5] = experiment: Effect of Cyclic Amines on Growth Rate of Pigmented Melanoma (Table I), HFH-LP; assay type: cell-based, mouse
Procedure: (§6) These cell cultures include low passage HFH (HFH-LP), a pigmented line derived from the B-16 mouse melanoma, and NP, an amelanotic clone of HFH-LP. […] These cells were maintained as monolayers in Corning plastic flasks in Minimum Essential Medium (Eagle) with Earle's salts supplemented with 10% fetal bovine serum, 100 units of penicillin, 100 mg of streptomycin and 5 mg of amphotericin B per ml in 5% CO2 humidified air at 37° C.
as §4, §5

NP = experiment: cells; settings: Mus musculus, 1.5 h, read-out: Effect on Growth Rate (inhibition), NP
Procedure: as §6, §4, §5

in vitro = settings: mouse, l929 cells
Procedure: as §3, §4, §5

L929 fibroblast [6] = experiment: Effect of High Dose Exposure to Piperidino 1,2-Propanediol (Table V), L929; assay type: cell-based, mouse; settings: 30 min. exposure
Excerpt: (§2) Pigmented S91 melanoma and nonpigmented L929 fibroblast cells were exposed to high doses of piperidino 1,2-propanediol.

S91 melanoma [7] = experiment: Effect of High Dose Exposure to Piperidino 1,2-Propanediol (Table V), S91; assay type: cell-based, mouse; settings: 30 min. exposure
Excerpt: as §2

[8] = L929, 1 Hour Exposure to 13.8 mM
[9] = S91, 1 Hour Exposure to 13.8 mM

CN1CCN(C)CC1 [1,4-dimethylpiperazine]
inhibition at 13800 µM (L929 fibroblast [1]; [8]): 0% | in vitro effectiveness of dosage/time regimen (melanin-pigmented cells; 13.8 mM for 1 hour): effective in vitro for inhibiting the growth of melanin-pigmented cells with little or no effect upon unpigmented cells | inhibition at 13800 µM (S91 melanoma [2]; [9]): 99%

CN1CCNCC1 [1-methylpiperazine]
inhibition at 13800 µM (L929 fibroblast [1]; [8]): 0% | in vitro effectiveness of dosage/time regimen (melanin-pigmented cells; 13.8 mM for 1 hour): effective in vitro for inhibiting the growth of melanin-pigmented cells with little or no effect upon unpigmented cells | inhibition at 13800 µM (S91 melanoma [2]; [9]): 99%

CN1CCCCC1 [1-methylpiperidine]
inhibition at 13800 µM (L929 fibroblast [1]; [8]): 4% | in vitro effectiveness of dosage/time regimen (melanin-pigmented cells; 13.8 mM for 1 hour): effective in vitro for inhibiting the growth of melanin-pigmented cells with little or no effect upon unpigmented cells | inhibition at 13800 µM (S91 melanoma [2]; [9]): 99%

CC1CNC(C)CN1 (stereo not shown) [2,5-dimethylpiperazine]
inhibition at 13800 µM (L929 fibroblast [1]; [8]): 0% | in vitro effectiveness of dosage/time regimen (melanin-pigmented cells; 13.8 mM for 1 hour): effective in vitro for inhibiting the growth of melanin-pigmented cells with little or no effect upon unpigmented cells | inhibition at 13800 µM (S91 melanoma [2]; [9]): 97%

c1cc(N2CCCCC2)ccn1 [4-piperidinopyridine]
inhibition at 13800 µM (L929 fibroblast [1]; [8]): 14% | in vitro effectiveness of dosage/time regimen (melanin-pigmented cells; 13.8 mM for 1 hour): effective in vitro for inhibiting the growth of melanin-pigmented cells with little or no effect upon unpigmented cells | in vitro effectiveness of dosage/time regimen (melanin-pigmented cells; 35 mM for 30 minutes): effective in vitro for inhibiting the growth of melanin-pigmented cells with little or no effect upon unpigmented cells | inhibition at 13800 µM (S91 melanoma [2]; [9]): 99%

CCN1CCOCC1 [N--ethylmorpholine, reference compound]
inhibition at 13800 µM (L929 fibroblast [1]; [8]): 0% | inhibition at 13800 µM (S91 melanoma [2]; [9]): 0%

CN1CCOCC1 [N--methylmorpholine, reference compound]
inhibition at 13800 µM (L929 fibroblast [1]; [8]): 0% | inhibition at 13800 µM (S91 melanoma [2]; [9]): 0%

c1ccncc1 [Pyridine, reference compound]
inhibition at 13800 µM (L929 fibroblast [1]; L929, 1 h): 0% | inhibition at 13800 µM (S91 melanoma [2]; S91, 1 h): 0%

C1CNCCN1 [piperazine]
cytotoxicity at 13800 µM (HFH-LP [3]): -44 ± 4% | inhibition at 13800 µM (L929 fibroblast [1]; [8]): 0% | cytotoxicity at 13800 µM [4]: 46 ± 5% | in vitro effectiveness of dosage/time regimen (melanin-pigmented cells; 13.8 mM for 1 hour): effective in vitro for inhibiting the growth of melanin-pigmented cells with little or no effect upon unpigmented cells | inhibition at 13800 µM (S91 melanoma [2]; [9]): 70% | inhibition at 13800 µM (HFH-LP [5]; Mus musculus, 13.8 mM for 1.5 hr, mean ± S.E., 6 replicates, read-out: Effect on Growth Rate (inhibition), HFH-LP): 24 ± 9% | inhibition of pigmented cell line HFH-LP (in words) (HFH-LP [5]; not as effective as morpholine at the dosage tested): selectively inhibitory to the pigmented cell line HFH-LP, although not as effective as morpholine | inhibition at 13800 µM (NP): 0% | cytotoxicity at 24 h, 13800 µM (in vitro): -101%

piperidino 1,2-propanediol [piperidino1,2-propanediol]
% inhibition, L929 fibroblast (L929 fibroblast [6]; 13.8 mM): 0% | % inhibition, L929 fibroblast (L929 fibroblast [6]; 34.5 mM): 7% | % inhibition, L929 fibroblast (L929 fibroblast [6]; 69 mM): 10% | % inhibition, L929 fibroblast (L929 fibroblast [6]; 138 mM): 19% | Percent Inhibition, L929 fibroblast (L929 fibroblast [1]; 1 Hour Exposure to 13.8 mM): 1% | in vitro effectiveness of dosage/time regimen (melanin-pigmented cells; 13.8 mM for 1 hour): effective in vitro for inhibiting the growth of melanin-pigmented cells with little or no effect upon unpigmented cells | in vitro effectiveness of dosage/time regimen (melanin-pigmented cells; 35 mM for 30 minutes): effective in vitro for inhibiting the growth of melanin-pigmented cells with little or no effect upon unpigmented cells | % inhibition, S91 melanoma (S91 melanoma [7]; 13.8 mM): 16% | % inhibition, S91 melanoma (S91 melanoma [7]; 34.5 mM): 44% | % inhibition, S91 melanoma (S91 melanoma [7]; 69 mM): 81% | % inhibition, S91 melanoma (S91 melanoma [7]; 138 mM): 91% | Percent Inhibition, S91 melanoma (S91 melanoma [2]; 1 Hour Exposure to 13.8 mM): 46%
